First: CCOC(=O)CNC(=O)CN1CCCC1=O
Second: CCOCc1ccc(CN(O)C(N)=O)o1
The melting point of the first is lower: 63 to 64 °C for the first, 80.5 °C for the second.

First: CS(=O)(=O)c1ccc(C2=C(c3ccccc3)CC2)cc1
Second: Cc1ccc(N=Cc2ccc(-c3ccccc3)cc2)cc1
The melting point of the first is lower: 73 to 75 °C for the first, 137 to 139 °C for the second.

First: COc1cc(N)c(Cl)cc1C(=O)NCC1(OC)CCN(CCCCCC(=O)c2ccccc2)CC1
Second: CCOC(=O)CCCn1c(=O)n(CCN2CCN(c3ccccc3OC)CC2)c(=O)c2cscc21
The melting point of the first is lower: 91 to 93 °C for the first, 108 to 110 °C for the second.

First: O=[N+]([O-])C=Cc1cccc(Cl)c1Cl
Second: Cc1ccc(Nc2c(F)cccc2Cl)c(CC(=O)O)c1
The melting point of the first is lower: 89 to 91 °C for the first, 152 to 154 °C for the second.

Compared with `COc1ccc2c(c1)CCCCN2C(=O)Nc1cccc(C(F)(F)F)c1`, `NS(=O)(=O)c1cccc(NC(=O)c2cnn3c(C(F)(F)F)cc(-c4ccc(Cl)cc4)nc23)c1` is higher in melting point: 108 °C for the first, 260 °C for the second.

First: N#Cc1ccc(Oc2nc(Nc3cccc(C(=O)O)c3)nc(Oc3ccccc3)n2)cc1
Second: O=C(O)Cc1ccc(OCCNCC(O)c2ccccc2)cc1 (stereo unspecified)
The melting point of the first is lower: 150 °C for the first, 183 to 184 °C for the second.

Compared with `COC(=O)C1C(c2ccc(Br)cc2)CC2CCC1N2C` (stereo unspecified), `CC(C)(C)OC(=O)C1CCC2(CCn3c(cc4ccccc43)C2)C1=O` (stereo unspecified) is higher in melting point: 114 to 116 °C for the first, 129 to 131 °C for the second.

First: ClC1=NCc2c(-c3noc(C4CC4)n3)ncn2-c2ccc(Cl)cc21
Second: Oc1ccc(Nc2nc(Cl)nc(NC3CCCCCC3)n2)cc1Cl
The melting point of the first is higher: 200 °C for the first, 91 °C for the second.

Compared with `CCC(CC)Nc1c([N+](=O)[O-])cc(C)c(COC(C)=O)c1[N+](=O)[O-]`, `CCN(CC)C(=O)n1ccc(S(=O)(=O)c2cc(Cl)ccc2C)n1` is higher in melting point: 47 to 49 °C for the first, 96 to 97 °C for the second.

First: CC1(C)Oc2ccc(C#N)cc2C(Oc2cccnn2)C1(C)O (stereo unspecified)
Second: CC1(C)CCC(C)(C)c2cc(C(=O)Nc3ccccc3)ccc21
The melting point of the first is lower: 93 to 105 °C for the first, 144 to 146 °C for the second.

First: N#Cc1cccnc1N1CCN(CC(=O)Nc2ccccc2F)CC1
Second: O=c1oc2ccccc2c(OCCN2CCOCC2)c1-c1ccccc1
The melting point of the first is lower: 78 to 79 °C for the first, 97 °C for the second.

Compared with `Cc1cc(Oc2ccsc2C(F)(F)F)nc(-c2ccc(C(F)(F)F)cc2)c1`, `CCOc1cc(C)ccc1NC1CCN(CCCCNC(=O)c2ccc(-c3ccc(C(F)(F)F)cc3)cc2)CC1` is higher in melting point: 52.5 to 55.5 °C for the first, 162 °C for the second.

First: CCCCCC(c1ccccc1C(F)(F)F)C(C(N)=O)c1cc(C(=O)O)ccc1C(C)(C)C (stereo unspecified)
Second: CC[C@H](C)CCCCCOc1ccc(C(=O)Oc2ccc(O)cc2)cc1
The melting point of the first is higher: 199 to 200 °C for the first, 75 °C for the second.

Compared with `COc1ccc(Sc2cnc(NC(C)=O)s2)cc1`, `COc1ccc(C(=O)c2ccccc2)c(S)c1` is lower in melting point: 190 to 191 °C for the first, 74 to 76 °C for the second.

First: CC1CCN(C(=O)C(Cc2cc3c(N)nccc3s2)NS(=O)(=O)c2ccc(OC3CCOCC3)cc2)CC1 (stereo unspecified)
Second: CN1CCN(Cc2ccc(NC(=O)c3nsc4cc(Oc5ccnc(N)n5)ccc34)cc2C(F)(F)F)CC1
The melting point of the first is lower: 127 to 129 °C for the first, 215 to 217 °C for the second.

First: CNC1C(O)CC2C3CCC4CC(OC(C)=O)CCC4(C)C3CCC21C (stereo unspecified)
Second: Ic1ccc(C2CCCCO2)cc1-c1cc(C2CCCCO2)ccc1I (stereo unspecified)
The melting point of the first is higher: 197 to 199 °C for the first, 112 to 113 °C for the second.

First: CCCCn1c(=S)sc2c(=N)n(NC(N)=O)cnc21
Second: CCCCCCCCCCCCNC(=O)n1nc(Oc2ncc(C(F)(F)F)cc2Cl)cc1C
The melting point of the first is higher: 222 °C for the first, 56 to 57 °C for the second.

First: c1ccc(C(OC2CCN(CCCn3cnc4ccccc43)CC2)c2ccccc2)cc1
Second: O=C1c2ccccc2C(=O)N1CCS(=O)(=O)c1ccccc1
The melting point of the first is lower: 110 °C for the first, 186 to 188 °C for the second.

First: Cc1sc(C)c2c(=O)n3cc(C#N)ccc3nc12
Second: Cn1nnnc1-c1cn(C)c2cc(F)ccc2c1=O
The melting point of the first is lower: 242 to 244 °C for the first, 264 to 267 °C for the second.

First: COc1cc(F)ccc1Nc1ccc2c(c1)OCc1cc(N)ccc1C2=O
Second: COC(=O)c1ccc2oc(-c3ccccc3O)cc(=O)c2c1
The melting point of the first is lower: 38.9 °C for the first, 290 to 291 °C for the second.

Compared with `COc1ccc(-c2nc3sccn3c2/C=C/C(=O)c2cc(OC)c(OC)c(OC)c2)cc1`, `CCOC(=O)c1ccc(OCCOC)c(OC)c1` is lower in melting point: 177 to 179 °C for the first, 57 to 60 °C for the second.

First: CC(C)S(=O)(=O)n1c(N)nc2ccc(C(=O)c3ccccc3)cc21
Second: O=C(OCC(Cl)(Cl)Cl)N1CCC(=C2c3ccccc3Oc3ccccc32)CC1
The melting point of the first is higher: 191 to 193 °C for the first, 132 to 134 °C for the second.

First: CS(=O)(=O)Oc1ccc2c(c1)C(=O)C(CC=O)C2 (racemic)
Second: COc1cc(OC)cc(C(=O)N2CCc3cc(O)ccc3C2=O)c1
The melting point of the first is lower: 85 to 87 °C for the first, 178 to 179 °C for the second.

First: O=C(O)COc1cccc2c1CCc1sc(S(=O)(=O)C(c3ccc(F)cc3)c3ccc(F)cc3)nc1-2
Second: OCC1OC(c2ccc(Cl)c(Cc3cc4ccccc4s3)c2)C(O)C(O)C1O (stereo unspecified)
The melting point of the first is higher: 186 to 188 °C for the first, 153 to 154 °C for the second.

Compared with `CCCCCCCCCCCCc1ccccc1C(Sc1nnnn1CCCC(=O)O)C(=O)O` (stereo unspecified), `CCCCCCCCCCCCCCCC(=O)C1=C(O)COC1=O` is lower in melting point: 86 to 88 °C for the first, 81 to 83 °C for the second.

Work on `CC(=O)N(C#N)Cc1ccccc1` yielded a melting point of 42 °C.
